“Also recorded” adds a separate entry of the source.
Test system: ARCaPM cells
Assay: Detection of prostate cancer cells in human blood
Assay type: cell-based
Protocol: An experimental model of evaluating human prostate cancer cells in blood was developed. In brief, heparinized whole blood from human volunteers was collected according to an Emory University approved IRB protocol. A known number of human prostate cancer cells (10-1,000) were added to 1 ml of whole blood, mixed gently with 20 μM IR-783 and incubated for 30 minutes at 37° C. The mononuclear cells and cancer cells were recovered by gradient centrifugation using Histopaque-1077 (Sigma, St. Louis, Mo.). The isolated live cells were observed under a confocal fluorescence microscope.

“2-[2-[2-Chloro-3-[2-[1,3-dihydro-3,3-dimethyl-1-(4-sulfobutyl)-2H-indol-2-ylidene]-ethylidene]-1-cyclohexen-1-yl]-ethenyl]-3,3-dimethyl-1-(4-sulfobutyl)-3H-indolium [IR-783]” was tested, and the “fewest cancer cells detected in whole blood” value (ARCaPM cells (10 to 1,000) added to 1 ml whole blood) was 10 cancer cells per milliliter, the “visualization / dye uptake of cancer cells mixed with human blood” value (ARCaPM cells, 20 μM IR-783, 30 minutes, 37° C.) was “clearly visualized; also recorded: Significant uptake and retention” and the “signal in mononuclear cells” value (human blood, 20 μM IR-783) was “hardly showed any signals”.

From patent publication US20170314056A1, “METHOD OF USING NEAR INFRARED FLUORESCENT DYES FOR IMAGING AND TARGETING CANCERS” (priority 2010, published 2017)
